In US10786465B2, “Polymer/copolymer nanoparticles conjugated to gambogic acid” (The Texas A&M University System, priority 2015, dated 2020):

What was measured:
[1] = described in literature; cited from earlier work
TfR = TfR (Homo sapiens, UniProt P02786); experiment: Sandwich ELISA, binding of fluorescent PLGA-GA/PLGA NS to TfR; settings: 200 ng of TfR
Description: GA has been previously shown to have affinity for TfR, independent of transferrin binding. To evaluate the translation of the avidity of GA for TfR in PLGA-GA NS, a sandwich ELISA method was employed. The initial study involved the determination of the effect of surface GA density of NS in their binding affinity to TfR. […] The total […] of the NS suspension available in the wells without TfR was also measured in order to ensure that the variation in the FI with TfR was caused by the binding of the NS to the receptor.

Caco-2 cells = experiment: Concentration dependent toxicity in Caco-2 cells; type: cell-based; settings: human
Description: Cell death observed in the latter case could be attributed to the cumulative effect of high concentration of polymer and available GA. However, a moderate treatment of 250 μg NS appears to be safe for the cells. The amount of GA present in all the NS in […] was much lower than the established safe dose of 60 mg/kg described in literature.

TfR, sequence (P02786 whole entry, species assumed): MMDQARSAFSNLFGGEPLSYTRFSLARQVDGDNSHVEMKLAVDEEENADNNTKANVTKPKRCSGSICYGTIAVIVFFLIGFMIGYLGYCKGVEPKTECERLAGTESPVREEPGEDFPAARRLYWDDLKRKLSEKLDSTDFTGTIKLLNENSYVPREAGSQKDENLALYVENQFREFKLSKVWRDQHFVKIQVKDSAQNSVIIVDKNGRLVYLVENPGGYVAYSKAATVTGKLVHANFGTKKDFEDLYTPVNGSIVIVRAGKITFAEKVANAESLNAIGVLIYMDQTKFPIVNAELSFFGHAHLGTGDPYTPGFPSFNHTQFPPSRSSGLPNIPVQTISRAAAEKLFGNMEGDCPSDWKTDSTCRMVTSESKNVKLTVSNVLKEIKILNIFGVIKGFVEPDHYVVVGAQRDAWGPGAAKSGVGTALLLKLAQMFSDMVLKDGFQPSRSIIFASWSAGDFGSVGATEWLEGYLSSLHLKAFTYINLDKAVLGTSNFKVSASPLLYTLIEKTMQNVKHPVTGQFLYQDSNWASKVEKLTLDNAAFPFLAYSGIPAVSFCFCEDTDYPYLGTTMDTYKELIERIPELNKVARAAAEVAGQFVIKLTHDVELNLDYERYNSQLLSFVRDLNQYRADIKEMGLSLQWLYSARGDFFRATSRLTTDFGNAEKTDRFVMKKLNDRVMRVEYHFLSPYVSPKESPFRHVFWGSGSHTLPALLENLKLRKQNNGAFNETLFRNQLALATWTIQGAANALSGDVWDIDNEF

Question: With CC(C)=CCC[C@]1(C)C=Cc2c(O)c3c(c(CC=C(C)C)c2O1)O[C@]12C(=C[C@@H]4C[C@H]1C(C)(C)O[C@@]2(C/C=C(/C)C(=O)O)C4=O)C3=O [GA, gambogic acid] as the compound, how does the established safe dose [1] read?
Answer: 60 mg/kg

Question: And the “competition with 2° antibody for TfR (colorimetric TfR levels)” value (TfR)?
Answer: does not compete with 2° antibody for TfR

Question: What about the cell death (Caco-2 cells; 20 μM) of the same compound?
Answer: 25%

Question: What about the cell death (Caco-2 cells; 30 μM) of the same compound?
Answer: 46%
